Source: patent publication US9593305B2, “Differentiation of pluripotent stem cells” (Janssen Biotech, Inc., priority 2008, dated 2017)

System: H1 human embryonic stem cells
Assay: Compounds and growth factors with low dose activin A (Example 9, Table 9)
Type: cell-based
Description: Clusters of H1 human embryonic stem cells were grown on reduced growth factor […]™ (Invitrogen; Cat #356231)-coated tissue culture plastic. Cells were passaged using collagenase (Invitrogen; Cat #17104-019) treatment and gentle scraping, washed to remove residual enzyme, and plated with even dispersal at a ratio of 1:1 (surface area) on reduced growth factor […]™-coated 96-well black plates (Packard ViewPlates; PerkinElmer; Cat #6005182) using volumes of 100 μl/well. Cells were allowed to attach as clusters and then recover log phase growth over a 1 to 3 day period, feeding daily with MEF conditioned medium supplemented with 8 ng/ml bFGF (R&D Systems; Cat #233-FB). Plates were maintained at 37° C., 5% CO2 in a humidified box throughout the duration of assay.
Stocks of growth factors purchased from R&D Systems were EGF (Cat #236-EG), FGF4 (Cat #235-F4), PDGF-A (Cat #221-AA), PDGF-D (Cat #1159-SB), PDGF-A/B (Cat #222-AB), VEGF (Cat #293-VE), and GDF-8 (Cat #788-08). Activin A was purchased from PeproTech (Cat #). Muscimol was purchased from Tocris (Cat #0289). All growth factors were solubilized in PBS with 0.1% BSA (Sigma; Cat #A7888) and stored frozen at −80° C. Muscimol was solubilized in 100% DMSO (Sigma; Cat #D2650) and stored frozen at −80° C. The compounds were available as 5 mM stocks in 96-well plate format, solubilized in 100% DMSO and stored at −80° C. The compounds were further diluted to an intermediate concentration of 0.2 mM in 50 mM HEPES (Invitrogen; Cat #15630-080), 20% DMSO and stored at 4° C. All growth factors and inhibitors were prepared in a deep well, 96-well polypropylene plate, diluted to 5× intermediate stocks in DMEM:F12 base medium at the beginning of assay and stored at 4° C.
A secondary screening assay was conducted, testing in triplicate and feeding on alternate days over the four-day assay timeframe. Assays were initiated by aspirating culture medium from each well followed by three washes in PBS to remove residual growth factors and serum. Test volumes of 80 μl per well were added back containing DMEM:F12 base medium (Invitrogen; Cat #11330-032) supplemented with 0.625% FCS (HyClone; Cat #SH30070.03), 25 ng/ml Wnt3a (R&D Systems), 12.5 ng/ml activin A, and 3.125 μM compound plus 20 μl 5× stock of growth factor or small molecule to yield a final concentration of 0.5% FCS, 20 ng/ml Wnt3a, 10 ng/ml activin A, and 2.5 μM compound. All remaining growth factors were tested at a final assay concentration of 50 ng/ml (EGF, FGF4, PDGF-A, PDGF-A/B, VEGF), with the exception of GDF-8 used at 25 ng/ml. Final assay concentration of muscimol was 20 μM. Positive control wells (100 μl/well) contained the same base medium supplemented with 0.5% FCS, 20 ng/ml Wnt3a and 10 ng/ml (low dose) or 100 ng/ml (high dose) activin A. Negative control wells (100 μl/well) contained the same base medium with 0.5% FCS and 20 ng/ml Wnt3a, omitting activin A.
Positive control wells (100 μl/well) contained the same base medium supplemented with 2% FCS and 10 ng/ml or 100 ng/ml activin A, omitting Wnt3a. Negative control wells (100 μl/well) contained the same base medium with 2% FCS, omitting both activin A and Wnt3a.
At the conclusion of four-days of culture, assay plates were washed twice with PBS, fixed with 4% paraformaldehyde (Alexis Biochemical; Cat #ALX-350-011) at room temperature for 20 minutes, then washed three times with PBS and permeabilized with 0.5% Triton X-100 (Sigma; Cat #T8760-2) for 20 minutes at room temperature. Cells were washed again three times with PBS and blocked with 4% chicken serum (Invitrogen; Cat #16110082) in PBS for 30 minutes at room temperature. Primary antibody (goat anti-human SOX17; R&D Systems; cat #AF1924) was diluted 1:100 in 4% chicken serum and added to each well for one hour at room temperature. […]

[1] = 10 ng/ml AA + compound + EGF + FGF4 + PDGF-A + Muscimol + Wnt3a
[2] = 10 ng/ml AA + compound + EGF + FGF4 + PDGF-A + VEGF + PDGF-D + Muscimol + GDF8 + Wnt3a
[3] = 10 ng/ml AA + compound + EGF + FGF4 + PDGF-AB + VEGF + Wnt3a
[4] = 10 ng/ml AA + compound + EGF + FGF4 + PDGF-AB + Wnt3a
[5] = 10 ng/ml AA + compound + EGF + FGF4 + Wnt3a
[6] = 10 ng/ml AA + compound + EGF + Wnt3a
[7] = 10 ng/ml AA + compound + FGF4 + Wnt3a

Structure (SMILES)	Cell Number, % of positive control [1]	Cell Number, Average Total Cell Number [1]	Sox17 Expression, % of positive control [1]	Sox17 Expression, Average Total Intensity [1]	Cell Number, % of positive control [2]	Cell Number, Average Total Cell Number [2]	Sox17 Expression, % of positive control [2]	Sox17 Expression, Average Total Intensity [2]	Cell Number, % of positive control [3]	Cell Number, Average Total Cell Number [3]	Sox17 Expression, % of positive control [3]	Sox17 Expression, Average Total Intensity [3]	Cell Number, % of positive control [4]	Cell Number, Average Total Cell Number [4]	Sox17 Expression, % of positive control [4]	Sox17 Expression, Average Total Intensity [4]	Cell Number, % of positive control [5]	Cell Number, Average Total Cell Number [5]	Sox17 Expression, % of positive control [5]	Sox17 Expression, Average Total Intensity [5]	further results
O=C1CCN2CCN(CC2)Cc2cc(Cl)cc(c2)Nc2ncnc(n2)-c2cncc(c2)CCCN1 [Compound 34, 5-Chloro-1,8,10,12,16,22,26,32-octaazapentacyclo[24.2.2.1˜3.7˜0.1˜9,13˜0.1˜14.18˜]tritriaconta-3(33), 4,6,9(32), 10,12,14(31), 15,17-nonaen-23-one]	233.85 % of positive control	17890	258.30 % of positive control	2.88E+08	240.02 % of positive control	18362	309.74 % of positive control	3.45E+08	203.58 % of positive control	15574	232.70 % of positive control	2.59E+08	233.65 % of positive control	17875	241.07 % of positive control	2.68E+08	185.07 % of positive control	14158	215.35 % of positive control	2.40E+08	Cell Number, % of positive control [6]: 189.89 % of positive control; Cell Number, Average Total Cell Number [6]: 14527; Sox17 Expression, % of positive control [6]: 204.84 % of positive control; Sox17 Expression, Average Total Intensity [6]: 2.28E+08; Cell Number, % of positive control [7]: 174.15 % of positive control; Cell Number, Average Total Cell Number [7]: 13323; Sox17 Expression, % of positive control [7]: 196.86 % of positive control; Sox17 Expression, Average Total Intensity [7]: 2.19E+08; Cell Number, % of positive control (10 ng/ml AA + compound + Wnt3a): 46.91 % of positive control; Cell Number, Average Total Cell Number (10 ng/ml AA + compound + Wnt3a): 3589; Sox17 Expression, % of positive control (10 ng/ml AA + compound + Wnt3a): 63.08 % of positive control; Sox17 Expression, Average Total Intensity (10 ng/ml AA + compound + Wnt3a): 7.02E+07
O=C1NCCCc2cncc(c2)-c2ncnc(n2)Nc2cccc(c2)CN2CCC1CC2 [Compound 22, 1,8,10,12,16,22,30-Heptaazapentacyclo[22.2.2.1-3,7˜0.1˜9,13˜1-14,18˜]hentriaconta-3(31), 4,6,9(30), 10,12,14(29), 15,17-nonaen-23-one]	132.10 % of positive control	8100	38.65 % of positive control	4.42E+07	139.53 % of positive control	8556	76.82 % of positive control	8.78E+07	124.87 % of positive control	7657	41.09 % of positive control	4.70E+07	130.06 % of positive control	7975	30.03 % of positive control	3.43E+07	159.83 % of positive control	9800	40.13 % of positive control	4.59E+07	Cell Number, % of positive control [6]: 81.55 % of positive control; Cell Number, Average Total Cell Number [6]: 5001; Sox17 Expression, % of positive control [6]: 24.45 % of positive control; Sox17 Expression, Average Total Intensity [6]: 2.80E+07; Cell Number, % of positive control [7]: 105.84 % of positive control; Cell Number, Average Total Cell Number [7]: 6490; Sox17 Expression, % of positive control [7]: 37.43 % of positive control; Sox17 Expression, Average Total Intensity [7]: 4.28E+07; Cell Number, % of positive control (10 ng/ml AA + compound + Wnt3a): 74.09 % of positive control; Cell Number, Average Total Cell Number (10 ng/ml AA + compound + Wnt3a): 4543; Sox17 Expression, % of positive control (10 ng/ml AA + compound + Wnt3a): 26.65 % of positive control; Sox17 Expression, Average Total Intensity (10 ng/ml AA + compound + Wnt3a): 3.05E+07
CCN1CCCc2cccc(c2)-c2ncnc(n2)Nc2cccc(c2)CCNC(=O)C1 [Compound 29, 18-Ethyl-3,5,7,15,18,28-hexaazatetracyclo[20.3.1.1˜2,6˜0.1˜8,12˜]octacosa-1(26), 2(28), 3,5,8(27), 9,11,22,24-nonaen-16-one]	76.26 % of positive control	4676	21.11 % of positive control	2.41E+07	44.63 % of positive control	2737	21.10 % of positive control	2.41E+07	37.23 % of positive control	2283	4.88 % of positive control	5.59E+06	64.65 % of positive control	3964	19.89 % of positive control	2.27E+07	28.31 % of positive control	1736	1.73 % of positive control	1.98E+06	Cell Number, % of positive control [6]: 5.96 % of positive control; Cell Number, Average Total Cell Number [6]: 365; Sox17 Expression, % of positive control [6]: −4.25 % of positive control; Sox17 Expression, Average Total Intensity [6]: −4.86E+06; Cell Number, % of positive control [7]: 34.89 % of positive control; Cell Number, Average Total Cell Number [7]: 2139; Sox17 Expression, % of positive control [7]: 6.10 % of positive control; Sox17 Expression, Average Total Intensity [7]: 6.98E+06; Cell Number, % of positive control (10 ng/ml AA + compound + Wnt3a): 34.09 % of positive control; Cell Number, Average Total Cell Number (10 ng/ml AA + compound + Wnt3a): 2090; Sox17 Expression, % of positive control (10 ng/ml AA + compound + Wnt3a): 4.28 % of positive control; Sox17 Expression, Average Total Intensity (10 ng/ml AA + compound + Wnt3a): 4.89E+06
